Literature values, collected in patent US11648313B2, “Multimodal therapy for cancer cell destruction” (Southeast Missouri State University, priority 2015, dated 2023).

Key:
NF-kB = settings: neuroblastoma cells
FAK = FAK (Homo sapiens, UniProt Q05397)
Chain of FAK (Q05397 whole entry): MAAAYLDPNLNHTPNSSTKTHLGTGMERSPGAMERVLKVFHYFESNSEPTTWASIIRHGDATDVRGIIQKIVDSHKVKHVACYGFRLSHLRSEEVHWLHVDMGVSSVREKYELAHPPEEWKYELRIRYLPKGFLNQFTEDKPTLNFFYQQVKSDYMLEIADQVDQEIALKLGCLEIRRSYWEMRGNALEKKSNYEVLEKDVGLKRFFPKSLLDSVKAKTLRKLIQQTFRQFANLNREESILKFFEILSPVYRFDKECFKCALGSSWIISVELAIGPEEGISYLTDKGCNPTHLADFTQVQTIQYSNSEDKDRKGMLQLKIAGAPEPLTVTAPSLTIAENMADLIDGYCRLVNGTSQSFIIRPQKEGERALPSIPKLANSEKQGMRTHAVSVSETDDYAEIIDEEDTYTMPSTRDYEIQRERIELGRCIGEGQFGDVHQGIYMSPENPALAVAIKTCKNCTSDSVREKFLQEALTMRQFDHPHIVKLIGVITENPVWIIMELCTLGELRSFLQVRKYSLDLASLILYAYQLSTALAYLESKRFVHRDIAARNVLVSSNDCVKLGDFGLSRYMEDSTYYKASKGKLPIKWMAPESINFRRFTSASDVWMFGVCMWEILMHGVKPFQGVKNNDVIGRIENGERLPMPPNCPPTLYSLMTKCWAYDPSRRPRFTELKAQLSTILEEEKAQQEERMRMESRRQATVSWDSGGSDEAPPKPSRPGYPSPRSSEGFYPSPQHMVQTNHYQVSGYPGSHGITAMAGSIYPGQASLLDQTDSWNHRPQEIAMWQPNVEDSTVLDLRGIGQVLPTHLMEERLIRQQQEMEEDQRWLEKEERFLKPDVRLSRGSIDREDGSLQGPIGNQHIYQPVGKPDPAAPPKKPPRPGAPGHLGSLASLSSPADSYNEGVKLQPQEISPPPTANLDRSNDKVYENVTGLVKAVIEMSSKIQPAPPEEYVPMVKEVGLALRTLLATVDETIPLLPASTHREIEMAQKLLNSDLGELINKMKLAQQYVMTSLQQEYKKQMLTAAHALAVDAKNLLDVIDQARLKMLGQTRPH

SMILES	NF-kB activation (NF-kB)	water solubility	effect of FAK inhibition on cell survival, apoptosis, cell cycle (FAK)
COc1cc([C@@H]2c3cc4c(cc3[C@@H](O[C@@H]3O[C@@H]5CO[C@@H](C)O[C@H]5[C@H](O)[C@H]3O)[C@H]3COC(=O)[C@H]23)OCO4)cc(OC)c1O [VP16]	trigger NF-kB activation	–	–
Cl.Cl.Cl.Cl.Nc1cc(N)c(N)cc1N [Y15]	–	adequate water solubility	decreased cell survival, increased apoptosis, and G2 cell cycle arrest
CNC(=O)c1ccccc1Nc1nc(Nc2ccc(N3CCOCC3)cc2OC)ncc1Cl [NVP-TAE 226]	–	adequate water solubility	decreased cell survival, increased apoptosis, and G2 cell cycle arrest
COc1cccc2c1C(=O)c1c(O)c3c(c(O)c1C2=O)C[C@@](O)(C(=O)CO)C[C@@H]3O[C@H]1C[C@H](N)[C@H](O)[C@H](C)O1 [doxorubicin]	trigger NF-kB activation	–	–
